# From patent US12660819B2, “Herbicidal derivatives” (SYNGENTA CROP PROTECTION AG, priority 2020, dated 2026)
# Tests used:
# Type in all cases: in vivo
# [1] = test system: Amaranthus retoflexus (AMARE); experiment: Post-emergence Test (glasshouse, percentage damage to the plant); details: post-emergence spray, 1000 g/ha unless otherwise stated, evaluated after 13 days
# Outline: (§1)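 Seeds sown in pots in glasshouse (24/16 °C day/night, 14 h light, 65% humidity), then sprayed with compound at 1000 g/ha unless stated, from acetone/water 50:50 with 0.5% Tween 20. Damage assessed 13 days later on five-point scale (1=0–20% to 5=81–100%).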
# [2] = test system: Echinochloa crus-galli (ECHCG); experiment: as above; details: post-emergence spray, 1000 g/ha unless otherwise stated, evaluated after 13 days
# Outline: as §1
# [3] = test system: Ipomoea hederacea (IPOHE); experiment: as above; details: post-emergence spray, 1000 g/ha unless otherwise stated, evaluated after 13 days
# Outline: (§2)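 Seeds sown in standard soil in a glasshouse (24/16 °C day/night, 14 h light, 65% humidity), then sprayed with an aqueous solution of the compound formulated in acetone/water 50:50 with 0.5% Tween 20 at 1000 g/ha unless otherwise stated. Percentage damage was scored after 13 days on a five-point scale (5=81-100%; 1=0-20%).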
# Lolium perenne (LOLPE) [4] = experiment: as above; details: post-emergence spray, 1000 g/ha unless otherwise stated, evaluated after 13 days
# Outline: as §1
# Setaria faberi (SETFA) [5] = experiment: as above; details: post-emergence spray, 1000 g/ha unless otherwise stated, evaluated after 13 days
# Outline: as §2
# Solanum nigrum (SOLNI) [6] = experiment: as above; details: post-emergence spray, 1000 g/ha unless otherwise stated, evaluated after 13 days
# Outline: as §1
# [7] = test system: Amaranthus retoflexus (AMARE); experiment: Pre-emergence Test (glasshouse, percentage damage to the plant); details: 1000 g/ha unless otherwise stated, five-point scale
# Solanum nigrum (SOLNI) [8] = experiment: as above; details: 1000 g/ha unless otherwise stated, five-point scale
# Setaria faberi (SETFA) [9] = experiment: as above; details: 1000 g/ha unless otherwise stated, five-point scale
# Lolium perenne (LOLPE) [10] = experiment: as above; details: 1000 g/ha unless otherwise stated, five-point scale
# [11] = test system: Echinochloa crus-galli (ECHCG); experiment: as above; details: 1000 g/ha unless otherwise stated, five-point scale
# [12] = test system: Ipomoea hederacea (IPOHE); experiment: as above; details: 1000 g/ha unless otherwise stated, five-point scale
Compound,"Post-emergence Test AMARE, percentage damage to the plant (five-point scale) [1]","Post-emergence Test ECHCG, percentage damage to the plant (five-point scale) [2]","Post-emergence Test IPOHE, percentage damage to the plant (five-point scale) [3]","Post-emergence Test LOLPE, percentage damage to the plant (five-point scale) (Lolium perenne (LOLPE) [4])","Post-emergence Test SETFA, percentage damage to the plant (five-point scale) (Setaria faberi (SETFA) [5])","Post-emergence Test SOLNI, percentage damage to the plant (five-point scale) (Solanum nigrum (SOLNI) [6])","percentage damage to the plant, AMARE [7]","percentage damage to the plant, SOLNI (Solanum nigrum (SOLNI) [8])","percentage damage to the plant, SETFA (Setaria faberi (SETFA) [9])","percentage damage to the plant, LOLPE (Lolium perenne (LOLPE) [10])","percentage damage to the plant, ECHCG [11]","percentage damage to the plant, IPOHE [12]"
"CCn1c(C)c(-c2ccccc2C)c(=O)c(C(=O)O)c1-c1ccc(Cl)c(Cl)c1 [Compound 31, 2-(3,4-dichlorophenyl)-1-ethyl-6-methyl-5-(o-tolyl)-4-oxo-pyridine-3-carboxylic acid]",3 (3=41-60%),1 (1=0-20%),2 (2=21-40%),2 (2=21-40%),3 (3=41-60%),4 (4=61-80%),1 (1=0-20%),4 (4=61-80%),4 (4=61-80%),1 (1=0-20%),1 (1=0-20%),1 (1=0-20%)
"CCn1c(C)c(-c2ccc(Cl)cc2Cl)c(=O)c(C(=O)O)c1-c1ccc(Cl)c(Cl)c1 [Compound 15, 5-(2,4-dichlorophenyl)-2-(3,4-dichlorophenyl)-1-ethyl-6-methyl-4-oxo-pyridine-3-carboxylic acid]",5 (5=81-100%),4 (4=61-80%),2 (2=21-40%),1 (1=0-20%),5 (5=81-100%),4 (4=61-80%),5 (5=81-100%),3 (3=41-60%),5 (5=81-100%),1 (1=0-20%),1 (1=0-20%),1 (1=0-20%)
"CCn1c(C)c(-c2ccncc2)c(=O)c(C(=O)O)c1-c1ccc(Cl)c(Cl)c1 [Compound 25, 2-(3,4-dichlorophenyl)-1-ethyl-6-methyl-4-oxo-5-pyridin-1-ium-4-yl-pyridine-3-carboxylic acid;2,2,2-trifluoroacetate]",3 (3=41-60%),4 (4=61-80%),2 (2=21-40%),1 (1=0-20%),4 (4=61-80%),2 (2=21-40%),1 (1=0-20%),1 (1=0-20%),3 (3=41-60%),1 (1=0-20%),1 (1=0-20%),1 (1=0-20%)
"CCn1c(C)c(-c2cccnc2F)c(=O)c(C(=O)O)c1-c1ccc(Cl)c(Cl)c1 [Compound 6, 2-(3,4-dichlorophenyl)-1-ethyl-5-(2-fluoro-3-pyridyl)-6-methyl-4-oxo-pyridine-3-carboxylic acid]",4 (4=61-80%),4 (4=61-80%),1 (1=0-20%),4 (4=61-80%),4 (4=61-80%),3 (3=41-60%),4 (4=61-80%),3 (3=41-60%),5 (5=81-100%),4 (4=61-80%),4 (4=61-80%),1 (1=0-20%)
"CCn1c(C)c(-c2cccc(OC(F)(F)F)c2)c(=O)c(C(=O)O)c1-c1ccc(Cl)c(Cl)c1 [Compound 16, 2-(3,4-dichlorophenyl)-1-ethyl-6-methyl-4-oxo-5-[3-(trifluoromethoxy)phenyl]pyridine-3-carboxylic acid]",4 (4=61-80%),5 (5=81-100%),4 (4=61-80%),1 (1=0-20%),5 (5=81-100%),4 (4=61-80%),1 (1=0-20%),1 (1=0-20%),3 (3=41-60%),1 (1=0-20%),4 (4=61-80%),2 (2=21-40%)
"CCn1c(C)c(-c2ccc(OC)cc2)c(=O)c(C(=O)O)c1-c1ccc(Cl)c(Cl)c1 [Compound 18, 2-(3,4-dichlorophenyl)-1-ethyl-5-(4-methoxyphenyl)-6-methyl-4-oxo-pyridine-3-carboxylic acid]",5 (5=81-100%),4 (4=61-80%),5 (5=81-100%),2 (2=21-40%),5 (5=81-100%),5 (5=81-100%),1 (1=0-20%),2 (2=21-40%),4 (4=61-80%),1 (1=0-20%),2 (2=21-40%),1 (1=0-20%)
"CCn1c(C)c(-c2cncc(Cl)c2)c(=O)c(C(=O)O)c1-c1ccc(Cl)c(Cl)c1 [Compound 23, 5-(5-chloro-3-pyridyl)-2-(3,4-dichlorophenyl)-1-ethyl-6-methyl-4-oxo-pyridine-3-carboxylic acid]",3 (3=41-60%),3 (3=41-60%),3 (3=41-60%),1 (1=0-20%),4 (4=61-80%),1 (1=0-20%),1 (1=0-20%),1 (1=0-20%),5 (5=81-100%),1 (1=0-20%),1 (1=0-20%),1 (1=0-20%)
"CCn1c(C)c(-c2ccc([N+](=O)[O-])cc2)c(=O)c(C(=O)O)c1-c1ccc(Cl)c(Cl)c1 [Compound 36, 2-(3,4-dichlorophenyl)-1-ethyl-6-methyl-5-(4-nitrophenyl)-4-oxo-pyridine-3-carboxylic acid]",1 (1=0-20%),5 (5=81-100%),1 (1=0-20%),1 (1=0-20%),4 (4=61-80%),2 (2=21-40%),1 (1=0-20%),3 (3=41-60%),5 (5=81-100%),1 (1=0-20%),5 (5=81-100%),1 (1=0-20%)
"CCn1c(C)c(-c2csc(Cl)c2)c(=O)c(C(=O)O)c1-c1ccc(Cl)c(Cl)c1 [Compound 37, 5-(5-chloro-3-thienyl)-2-(3,4-dichlorophenyl)-1-ethyl-6-methyl-4-oxo-pyridine-3-carboxylic acid]",1 (1=0-20%),1 (1=0-20%),3 (3=41-60%),1 (1=0-20%),1 (1=0-20%),4 (4=61-80%),1 (1=0-20%),1 (1=0-20%),1 (1=0-20%),1 (1=0-20%),1 (1=0-20%),1 (1=0-20%)
